Test results from paper PMC3581310 (Bioorganic & medicinal chemistry, 2012).
Each block holds one molecule with its values, some of them ahead of it.

Columns and labels:
[1] = tested on: human endometrial adenocarcinoma cells (Ishikawa); assay: Estrogen bioassay: induction of AlkP in Ishikawa cells; format: cell-based
ER [2] = conditions: cited from earlier work
ER [3] = conditions: triphenyl acrylonitriles; cited from earlier work

SMILES: COc1ccc([C@H]2C[C@]3(C)[C@@H](O)CC[C@H]3[C@@H]3CCc4cc(O)ccc4[C@H]32)cc1 [Compound 5, 11β-(4-Methoxyphenyl)estra-1,3,5(10)-trien-3,17β-diol]
- Max stim ([1]; maximal stimulation of AlkP in Ishikawa cells, printed in the RSA column): Max stim = 35–45%

SMILES: CC/C(=C(\c1ccccc1)c1ccc(OCCN(C)C)cc1)c1ccccc1 [tamoxifen]
- affinity (RBA) (ER [2]): ~ 1%

SMILES: COc1ccc(C(=C(C#N)c2ccc(O)cc2)c2ccc(O)cc2)cc1
- efficacy (ER [3]): ‘partial’ agonist responses

- EC50 ([1]; Homo sapiens, Ishikawa, read-out: EC50 of E2): ~0.2 nM
SMILES: C[C@]12CC[C@@H]3c4ccc(O)cc4CC[C@H]3[C@@H]1CC[C@@H]2O [Compound E2, estradiol]

SMILES: N#CC(=C(c1ccc(O)cc1)c1ccc(O)cc1)c1ccc(O)cc1 [α,α′,β-tris(4-hydroxyphenyl) compound]
- efficacy (ER [3]): full agonist
